According to the supplement of paper PMC10307832:

What was measured:
Assay in all cases: relative viability (nuclei count vs DMSO), 5 days (fraction); higher = more cells survive
Vismodegib + Alpelisib = compound: CS(=O)(=O)c1ccc(C(=O)Nc2ccc(Cl)c(-c3ccccn3)c2)c(Cl)c1 [Vismodegib] + Cc1nc(NC(=O)N2CCC[C@H]2C(N)=O)sc1-c1ccnc(C(C)(C)C(F)(F)F)c1 [Alpelisib] (partner 2 µM)
How it was run: (§1)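 Lung cancer cell lines were pin-tool dosed in 1536-well plates on the day after seeding, with either a lone drug or a fixed anchor-drug dose plus five library-drug doses (not always all listed) in √10 steps. Nuclei were counted on 4× images after 5 days. Relative viability is the ratio of treated-well to vehicle-well nuclei counts, with each value a median of duplicate plates.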

Vismodegib + Crizotinib = compound: CS(=O)(=O)c1ccc(C(=O)Nc2ccc(Cl)c(-c3ccccn3)c2)c(Cl)c1 [Vismodegib] + C[C@@H](Oc1cc(-c2cnn(C3CCNCC3)c2)cnc1N)c1c(Cl)ccc(F)c1Cl [Crizotinib] (partner 1 µM)
How it was run: as §1

Ruxolitinib + Alpelisib = compound: N#CC[C@H](C1CCCC1)n1cc(-c2ncnc3[nH]ccc23)cn1 [Ruxolitinib] + Cc1nc(NC(=O)N2CCC[C@H]2C(N)=O)sc1-c1ccnc(C(C)(C)C(F)(F)F)c1 [Alpelisib] (partner 2 µM)
How it was run: as §1

VE-821 + Alpelisib = compound: CS(=O)(=O)c1ccc(-c2cnc(N)c(C(=O)Nc3ccccc3)n2)cc1 [VE-821] + Cc1nc(NC(=O)N2CCC[C@H]2C(N)=O)sc1-c1ccnc(C(C)(C)C(F)(F)F)c1 [Alpelisib] (partner 2 µM)
How it was run: as §1

| Cell Line | relative viability (Vismodegib + Alpelisib; first compound 0.08 µM) | relative viability (Vismodegib + Alpelisib; first compound 0.253 µM) | relative viability (Vismodegib + Alpelisib; first compound 0.8 µM) | relative viability (Vismodegib + Alpelisib; first compound 2.53 µM) | relative viability (Vismodegib + Alpelisib; first compound 8 µM) | relative viability (Vismodegib + Crizotinib; first compound 0.08 µM) | relative viability (Vismodegib + Crizotinib; first compound 0.253 µM) | relative viability (Vismodegib + Crizotinib; first compound 0.8 µM) | relative viability (Vismodegib + Crizotinib; first compound 2.53 µM) | relative viability (Vismodegib + Crizotinib; first compound 8 µM) | relative viability (Ruxolitinib + Alpelisib; first compound 0.08 µM) | relative viability (Ruxolitinib + Alpelisib; first compound 0.253 µM) | relative viability (Ruxolitinib + Alpelisib; first compound 0.8 µM) | relative viability (Ruxolitinib + Alpelisib; first compound 2.53 µM) | relative viability (Ruxolitinib + Alpelisib; first compound 8 µM) | relative viability (VE-821 + Alpelisib; first compound 0.08 µM) | relative viability (VE-821 + Alpelisib; first compound 0.253 µM) | relative viability (VE-821 + Alpelisib; first compound 0.8 µM) | relative viability (VE-821 + Alpelisib; first compound 2.53 µM) | relative viability (VE-821 + Alpelisib; first compound 8 µM) |
| --- | --- | --- | --- | --- | --- | --- | --- | --- | --- | --- | --- | --- | --- | --- | --- | --- | --- | --- | --- | --- |
| HCC-44 | 0.787 | 0.771 | 0.717 | 0.799 | 0.818 | 0.782 | 0.721 | 0.829 | 0.763 | 0.783 | 0.793 | 0.724 | 0.796 | 0.602 | 0.41 | 0.83 | 0.807 | 0.717 | 1.03 | 0.885 |
| HCC-78 | 0.369 | 0.346 | 0.267 | 0.359 | 0.362 | 0.307 | 0.351 | 0.286 | 0.351 | 0.347 | 0.289 | 0.249 | 0.308 | 0.277 | 0.337 | 0.448 | 0.289 | 0.217 | 0.394 | 0.229 |
| HCC-366 | 0.436 | 0.467 | 0.362 | 0.402 | 0.556 | 0.623 | 0.567 | 0.501 | 0.508 | 0.566 | 0.349 | 0.322 | 0.366 | 0.36 | 0.46 | 0.654 | 0.419 | 0.123 | 0.213 | 0.0456 |
| HCC-827 | 0.982 | 0.993 | 0.972 | 0.998 | 0.949 | 0.893 | 0.888 | 0.985 | 0.908 | 0.887 | – | 0.679 | 0.72 | 0.794 | 0.887 | 1.05 | 0.972 | 0.784 | 1.07 | 0.825 |
| HOP-62 | 0.92 | 0.906 | 0.978 | 0.919 | 1.12 | 0.991 | 0.905 | 0.867 | 0.503 | 0.908 | – | 0.813 | 1.05 | 0.96 | 0.723 | 1.09 | 0.646 | 0.723 | 0.928 | 0.93 |
| IA-LM | 0.778 | 0.728 | 0.966 | 0.582 | 1.04 | 0.719 | 0.769 | 0.906 | 0.681 | 0.94 | 0.676 | 0.849 | 0.959 | 0.584 | 0.679 | 0.905 | 0.475 | 0.797 | 1.04 | 0.738 |
| LC-2-ad | 0.894 | 0.909 | 0.859 | 0.818 | 0.918 | 0.419 | 0.477 | 0.434 | 0.37 | 0.469 | 0.895 | 0.848 | 0.934 | 0.734 | 0.567 | 0.991 | 0.846 | 0.926 | 1.01 | 0.686 |
| LCLC-97TM1 | – | – | 0.287 | – | 0.287 | – | – | 0.418 | – | 0.355 | 0.215 | 0.204 | 0.275 | 0.235 | 0.327 | 0.315 | 0.244 | 0.22 | 0.292 | 0.222 |
| LCLC-103H | 1.05 | 0.973 | 0.908 | 0.978 | 0.947 | 0.871 | 1.04 | 0.955 | 1.02 | 1.04 | 1.02 | 0.875 | 1.08 | 1.03 | 1.02 | 1 | 0.95 | 0.85 | 0.966 | 0.986 |
| LK-2 | 1.24 | 1.04 | 0.805 | 0.952 | 1.22 | 0.247 | 0.248 | 0.215 | 0.203 | 0.239 | – | 0.992 | 1.27 | 0.971 | 1.43 | 1.14 | 1.17 | 0.925 | 1.29 | 0.672 |
| LOU-NH91 | 0.693 | 0.782 | 0.699 | 0.695 | 0.755 | 0.726 | 0.76 | 0.704 | 0.747 | 0.728 | 0.569 | 0.674 | 0.796 | 0.736 | 0.694 | 0.747 | 0.738 | 0.66 | 0.75 | 0.702 |
| LU99A | 0.617 | 0.544 | 0.474 | 0.499 | 0.556 | 0.664 | 0.49 | 0.575 | 0.491 | 0.624 | 0.532 | 0.456 | 0.523 | 0.523 | 0.412 | 0.585 | 0.512 | 0.444 | 0.414 | 0.277 |
| LXF-289 | 1 | 0.993 | 1.07 | 0.994 | 1.04 | 0.806 | 0.772 | 0.816 | 0.745 | 0.781 | 1.01 | 1 | 1.04 | 0.948 | 0.815 | 1.14 | 1.06 | 1.02 | 1.2 | 1.18 |
| NCI-H23 | 0.801 | 0.588 | 0.672 | 0.652 | 0.853 | 0.489 | 0.54 | 0.597 | 0.553 | 0.537 | 0.611 | 0.726 | 0.801 | 0.72 | 0.535 | 0.734 | 0.69 | 0.512 | 0.624 | 0.416 |
| NCI-H322M | 0.813 | 0.756 | 0.744 | 0.917 | 0.773 | 0.858 | 0.869 | 0.849 | 0.879 | 1.08 | 0.901 | 0.844 | 0.873 | 0.802 | 1.01 | 0.728 | – | 0.763 | 0.881 | 0.612 |
| NCI-H1395 | 0.997 | 0.966 | 0.961 | 0.944 | 1.14 | – | – | – | – | – | – | 1.27 | 1.21 | 1.02 | 0.892 | 1.46 | 1.08 | 0.705 | 1.14 | 0.659 |
| NCI-H1650 | – | – | – | – | – | 0.884 | 0.904 | 0.97 | 0.932 | 0.918 | – | – | – | – | – | – | – | – | – | – |
| NCI-H1793 | – | 0.642 | 0.77 | 0.809 | 0.671 | – | – | – | – | – | 0.539 | 0.654 | 0.789 | 0.83 | 0.679 | 0.689 | 0.681 | 0.497 | 0.727 | 0.687 |
